Assay results as given in patent US20170232083A1, “METHODS OF DIAGNOSIS AND TREATMENT OF CELIAC DISEASE IN CHILDREN” (priority 2014, published 2017).

Test system: PBMC (polyclonal gluten-specific T cells) of paediatric and adult CD patients
Test: IFN-γ ELISpot of PBMC after 3 day oral wheat challenge (SFU, % of maximal peptide response, dominance scores, EC50; Examples 5-6)
Assay type: cell-based, human
Conditions: for IFN-γ ELISpot response: after oral wheat challenge; for Cross-reactive T cell response: following wheat challenge
[1] = patient A, 11-17 yrs, cut-off 10 SFU
[2] = patient E, H, 11-17 yrs, cut-off 10 SFU
[3] = patient F, 11-17 yrs, cut-off 10 SFU
[4] = patient G, 11-17 yrs, cut-off 10 SFU
[5] = patient H (HLA-DQ2.5 homozygote), 3-5yrs, cut-off 10 SFU
[6] = patient H, 11-17 yrs, cut-off 10 SFU
[7] = patient ID not given, 11-17 yrs, cut-off 10 SFU
[8] = patient N, 3-5yrs, cut-off 10 SFU
[9] = patient P, 11-17 yrs, cut-off 21.6 SFU
[10] = patient Q, 11-17 yrs, cut-off 10 SFU
[11] = patient U, H, 11-17 yrs, cut-off 10 SFU
[12] = patient V, 6-10 yrs, cut-off 10 SFU
[13] = patient Y, 6-10 yrs, cut-off 10 SFU
[14] = patient eleven, 6-10 yrs, cut-off 10 SFU
[15] = patient four, 3-5yrs, cut-off 10 SFU
[16] = patient seven, 6-10 yrs, cut-off 10.5 SFU
[17] = patient ten, 3-5yrs, cut-off 10 SFU
[18] = patient three, 6-10 yrs, cut-off 10.5 SFU
[19] = patient twelve, 11-17 yrs, cut-off 10 SFU
[20] = patient two, 3-5yrs, cut-off 10 SFU

FPQPEQEFPQPQQ
IFN-γ ELISpot response [1]: 6 SFU
IFN-γ ELISpot response [2]: 49 SFU
Significant response as percentage of maximal peptide SFU (patient E, max peptide 224 SFU): ′′ (21-40% = ′′)
IFN-γ ELISpot response [3]: 21 SFU
Significant response as percentage of maximal peptide SFU (patient F, max peptide 178 SFU): ′ (11-20% = ′)
IFN-γ ELISpot response [4]: 4 SFU
IFN-γ ELISpot response [5]: 13 SFU
IFN-γ ELISpot response [6]: 9 SFU
IFN-γ ELISpot response [7]: 26 SFU
Significant response as percentage of maximal peptide SFU (patient ID not given, max peptide 95 SFU): ′′ (21-40% = ′′)
Significant response as percentage of maximal peptide SFU (patient II, max peptide 15 SFU): + (>70% = +)
Significant response as percentage of maximal peptide SFU (patient J, max peptide 196 SFU): + (>70% = +)
Significant response as percentage of maximal peptide SFU (patient K, max peptide 53 SFU): ′′′ (41-70% = ′′′)
Significant response as percentage of maximal peptide SFU (patient M, max peptide 48 SFU): ′′ (21-40% = ′′)
IFN-γ ELISpot response [8]: 3 SFU
IFN-γ ELISpot response [9]: 11 SFU
IFN-γ ELISpot response [10]: 27 SFU
Significant response as percentage of maximal peptide SFU (patient Q, max peptide 97 SFU): ′′ (21-40% = ′′)
IFN-γ ELISpot response [11]: 15 SFU
Significant response as percentage of maximal peptide SFU (patient U, max peptide 81 SFU): ′ (11-20% = ′)
IFN-γ ELISpot response [12]: 9 SFU
IFN-γ ELISpot response [13]: 3 SFU
IFN-γ ELISpot response [14]: 1 SFU
Significant response as percentage of maximal peptide SFU (patient five, max peptide 48 SFU): ′′ (21-40% = ′′)
IFN-γ ELISpot response [15]: 10 SFU
Significant response as percentage of maximal peptide SFU (patient four, max peptide 44 SFU): ′′ (21-40% = ′′)
IFN-γ ELISpot response [16]: 11 SFU
Significant response as percentage of maximal peptide SFU (patient seven, max peptide 27 SFU): ′′′ (41-70% = ′′′)
IFN-γ ELISpot response [17]: 5 SFU
IFN-γ ELISpot response [18]: 158 SFU
IFN-γ ELISpot response [19]: 7 SFU
IFN-γ ELISpot response [20]: 13 SFU
Significant response as percentage of maximal peptide SFU (patient two, max peptide 60 SFU): ′ (11-20% = ′)

PEQTFPEQPQLPF
IFN-γ ELISpot response [1]: 3 SFU
IFN-γ ELISpot response [2]: 19 SFU
Significant response as percentage of maximal peptide SFU (patient E, max peptide 224 SFU): (6-10% = ^)
IFN-γ ELISpot response [3]: 1 SFU
IFN-γ ELISpot response [4]: 15 SFU
Significant response as percentage of maximal peptide SFU (patient G, max peptide 15 SFU): + (>70% = +)
IFN-γ ELISpot response [5]: 2 SFU
IFN-γ ELISpot response [6]: 9 SFU
IFN-γ ELISpot response [7]: 0 SFU
Significant response as percentage of maximal peptide SFU (patient J, max peptide 196 SFU): + (>70% = +)
Significant response as percentage of maximal peptide SFU (patient K, max peptide 53 SFU): ′′′ (41-70% = ′′′)
IFN-γ ELISpot response [8]: 1 SFU
IFN-γ ELISpot response [9]: 4 SFU
IFN-γ ELISpot response [10]: 2 SFU
IFN-γ ELISpot response [11]: 1 SFU
IFN-γ ELISpot response [12]: 4 SFU
IFN-γ ELISpot response [13]: 1 SFU
IFN-γ ELISpot response [14]: 0 SFU
IFN-γ ELISpot response [15]: 0 SFU
IFN-γ ELISpot response [16]: 4 SFU
IFN-γ ELISpot response [17]: 4 SFU
IFN-γ ELISpot response [18]: 179 SFU
IFN-γ ELISpot response [19]: 0 SFU
IFN-γ ELISpot response [20]: 1 SFU

QPFPQPEQPFPLQ
Cross-reactive T cell response (subject A, 11-17yrs): 5 SFU
Significant response as a percentage of maximal peptide SFU (subject D, 11-17yrs): ′′′ (41-70% = ′′′)
Cross-reactive T cell response (subject D, 11-17yrs): 16 SFU
Significant response as a percentage of maximal peptide SFU (subject E, 11-17yrs): ′′ (21-40% = ′′)
Cross-reactive T cell response (subject E, 11-17yrs): 70 SFU
Significant response as a percentage of maximal peptide SFU (subject F, 11-17yrs): ′′ (21-40% = ′′)
Cross-reactive T cell response (subject F, 11-17yrs): 64 SFU
Significant response as a percentage of maximal peptide SFU (subject G, 11-17yrs): ′′′ (41-70% = ′′′)
Cross-reactive T cell response (subject G, 11-17yrs): 10 SFU
Cross-reactive T cell response (subject H): 4 SFU
Significant response as a percentage of maximal peptide SFU (subject I): + (>70% = +)
Cross-reactive T cell response (subject I (3-5yrs/6-10yrs part)): 13 SFU
Significant response as a percentage of maximal peptide SFU (subject J): ′′′ (41-70% = ′′′)
Cross-reactive T cell response (subject J (3-5yrs/6-10yrs part)): 88 SFU
Significant response as a percentage of maximal peptide SFU (subject K): ′′′ (41-70% = ′′′)
Cross-reactive T cell response (subject K (3-5yrs/6-10yrs part)): 29 SFU
Cross-reactive T cell response (subject P, 11-17yrs): 21 SFU
Significant response as a percentage of maximal peptide SFU (subject Q, 11-17yrs): + (>70% = +)
Cross-reactive T cell response (subject Q, 11-17yrs): 83 SFU
Significant response as a percentage of maximal peptide SFU (subject T, 11-17yrs): + (>70% = +)
Cross-reactive T cell response (subject T, 11-17yrs): 94 SFU
Significant response as a percentage of maximal peptide SFU (subject U, 11-17yrs): ′′ (21-40% = ′′)
Cross-reactive T cell response (subject U, 11-17yrs): 18 SFU
Significant response as a percentage of maximal peptide SFU (subject V): ′′′ (41-70% = ′′′)
Cross-reactive T cell response (subject V (3-5yrs/6-10yrs part)): 22 SFU
Cross-reactive T cell response (subject W (3-5yrs/6-10yrs part)): 8 SFU
Cross-reactive T cell response (subject Y (3-5yrs/6-10yrs part)): 9 SFU
Significant response as a percentage of maximal peptide SFU (subject five): + (>70% = +)
Cross-reactive T cell response (subject five (3-5yrs/6-10yrs part)): 45 SFU
Cross-reactive T cell response (subject nine, 11-17yrs): 0 SFU
Cross-reactive T cell response (subject seven (3-5yrs/6-10yrs part)): 6 SFU
Significant response as a percentage of maximal peptide SFU (subject six): + (>70% = +)
Cross-reactive T cell response (subject six (3-5yrs/6-10yrs part)): 12 SFU
Significant response as a percentage of maximal peptide SFU (subject ten): + (>70% = +)
Cross-reactive T cell response (subject ten (3-5yrs/6-10yrs part)): 13 SFU
Significant response as a percentage of maximal peptide SFU (subject two): + (>70% = +)
Cross-reactive T cell response (subject two (3-5yrs/6-10yrs part)): 65 SFU
